pIC50, pKd: −log10 of the molar value. Numbered stars: 1 amine (or outer) side, 2 acyl side, 3 side chain; on linkers, the order of the positions; unused ones are H or OH. Square brackets hold non-standard residues; d marks the D form. Peptide text beside a SMILES is read from it. * marks the point of attachment. Trp(7-aza,1-CH2COOH) = N[C@@H](Cc1cn(CC(=O)O)c2ncccc12)C(=O)O; Trp(βS-Me,7-OMe) = COc1cccc2c([C@H](C)[C@H](N)C(=O)O)c[nH]c12; X49 = C[N+](C)(C)CC(=O)N[C@H]1C[C@H](C(=O)[*:2])N([*:1])C1; Trp(1-CH2COOH) = N[C@@H](Cc1cn(CC(=O)O)c2ccccc12)C(=O)O; X44 = NC(=O)c1ccc([C@@H](O)[C@H](N[*:1])C(=O)[*:2])cc1; Phe(4-SO2NH2) = N[C@@H](Cc1ccc(S(N)(=O)=O)cc1)C(=O)O; Trp(7-CN) = N#Cc1cccc2c(C[C@H](N)C(=O)O)c[nH]c12; Trp(7-Cl) = N[C@@H](Cc1c[nH]c2c(Cl)cccc12)C(=O)O; X27 = O=C(O)c1ccc(C[C@H](N[*:1])C(=O)[*:2])cc1F; Phe(4-CONH2) = NC(=O)c1ccc(C[C@H](N)C(=O)O)cc1; Phe(4-COOH) = N[C@@H](Cc1ccc(C(=O)O)cc1)C(=O)O; X30 = O=C([C@@H](N[*:1])[C@H](O)c1ccncc1)[*:2]; Trp(7-aza) = N[C@@H](Cc1c[nH]c2ncccc12)C(=O)O; X52 = C[C@@H](C(=O)[*:2])N(CCC(N)=O)[*:1]; Pip(5R-OH) = O=C(O)[C@@H]1CC[C@@H](O)CN1; X1 = O=C([C@@H]1CC[C@H](N[*:1])C1)[*:2]; AEF = NCCOc1ccc(C[C@H](N)C(=O)O)cc1; 4Pal = N[C@@H](Cc1ccncc1)C(=O)O; Ethyl(2-NMe3+) = C[N+](C)(C)CC*; NMeE = CN[C@@H](CCC(=O)O)C(=O)O; dHyp = O=C(O)[C@H]1C[C@H](O)CN1; αMeS = C[C@](N)(CO)C(=O)O; Carboxymethyl = O=C(O)C*; Nle = CCCC[C@H](N)C(=O)O; Sar = CNCC(=O)O
Tests used:
[1] = target: T1, human soluble TNFR1 (sTNFR1) (Homo sapiens, UniProt P19438); assay: Human sTNFR1-peptide displacement assay (LanthaScreen Eu TR-FRET binding assay)
T1 construct: made in house; host or cells: Sf21 (baculovirus)
T1 sequence (P19438 with tags, fused parts or gaps): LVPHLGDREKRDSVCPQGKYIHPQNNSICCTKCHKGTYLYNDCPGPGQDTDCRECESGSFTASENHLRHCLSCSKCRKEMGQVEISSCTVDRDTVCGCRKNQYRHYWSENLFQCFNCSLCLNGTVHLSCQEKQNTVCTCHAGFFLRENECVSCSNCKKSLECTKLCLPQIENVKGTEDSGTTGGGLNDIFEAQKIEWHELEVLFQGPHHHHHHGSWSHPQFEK
How it was run: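 Readout is the 665/615 nm TR-FRET ratio (Eu anti-His donor, streptavidin-Alexa647 acceptor), normalized to DMSO and saturating displacer, fit by Morrison-based five-parameter logistic for Kd^app. His-tagged sTNFR1 (1-211) prebound to 100 nM biotinylated peptide SEQ ID NO.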

[2] = target: T2, TNFα-induced NF-κB signal transduction pathway (TNFR1 signaling) in THP-1 cells (Homo sapiens, UniProt P19438); assay: THP-1 Lucia NF-κB reporter cell assay, inhibition of TNFα-induced NF-κB signaling; assay type: cell-based; details: THP-1 NF-κB Lucia reporter cells, 10 ng/mL TNFα, 16-18 h, secreted luciferase; read-out: THP-1 IC50
T2 sequence (P19438 30-455): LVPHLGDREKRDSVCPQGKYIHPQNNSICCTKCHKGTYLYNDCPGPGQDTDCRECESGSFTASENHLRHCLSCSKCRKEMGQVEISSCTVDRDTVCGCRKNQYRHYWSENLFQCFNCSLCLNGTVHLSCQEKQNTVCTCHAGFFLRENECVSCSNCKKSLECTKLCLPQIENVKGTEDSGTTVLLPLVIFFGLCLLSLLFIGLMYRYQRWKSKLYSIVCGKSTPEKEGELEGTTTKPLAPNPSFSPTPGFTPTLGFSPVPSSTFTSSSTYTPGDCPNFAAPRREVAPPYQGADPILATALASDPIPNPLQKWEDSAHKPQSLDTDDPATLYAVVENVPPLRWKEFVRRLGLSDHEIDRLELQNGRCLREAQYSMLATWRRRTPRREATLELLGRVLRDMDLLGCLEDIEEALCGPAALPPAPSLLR
How it was run: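 IC50 from a 4-parameter logistic fit of secreted luciferase luminescence (QUANTI-Luc), normalised to min/max controls. Reporter THP-1 cells were exposed to peptides for 1 h at 37 °C before 10 ng/mL TNFα (final) was added overnight (16–18 h).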

SMILES	pKd [1]	pIC50 [2]
CCCC[C@@H]1NC(=O)[C@@H]2CC[C@@H](C2)NC(=O)[C@H]([C@@H](C)c2c[nH]c3c(OC)cccc23)NC(=O)CN(C)C(=O)[C@H](Cc2ccc(C(=O)O)c(F)c2)NC(=O)[C@H](Cc2ccc(C(N)=O)cc2)NC(=O)[C@](C)(CO)NC(=O)[C@H](Cc2c[nH]c3c(C#N)cccc23)NC(=O)[C@H](Cc2ccc(C(=O)O)cc2)NC(=O)[C@H](CC(N)=O)NC(=O)[C@H]2C[C@H](NC(=O)C[N+](C)(C)C)CN2C(=O)[C@H](Cc2c[nH]c3ncccc23)NC(=O)[C@@H]2CC[C@@H](O)CN2C(=O)[C@H](Cc2ccncc2)NC1=O [SEQ ID NO. 113] (cyclo([4Pal][Pip(5R-OH)][Trp(7-aza)][X49]N[Phe(4-COOH)][Trp(7-CN)][αMeS][Phe(4-CONH2)][X27][Sar][Trp(βS-Me,7-OMe)][X1][Nle]))	10.05	9.30
CCCC[C@@H]1NC(=O)[C@@H]2CC[C@@H](C2)NC(=O)[C@H]([C@@H](C)c2c[nH]c3c(OC)cccc23)NC(=O)CN(C)C(=O)[C@H](Cc2ccc(OCC(=O)O)cc2)NC(=O)[C@H](Cc2ccc(S(N)(=O)=O)cc2)NC(=O)[C@](C)(CO)NC(=O)[C@H](Cc2c[nH]c3c(C#N)cccc23)NC(=O)[C@H](Cc2ccncc2)NC(=O)[C@H](CC(N)=O)NC(=O)[C@H]2C[C@H](OCC(=O)O)CN2C(=O)[C@H](Cc2cn(CC(=O)O)c3ncccc23)NC(=O)[C@@H]2CC[C@@H](O)CN2C(=O)[C@H](Cc2ccncc2)NC1=O [SEQ ID NO. 115] (cyclo([4Pal][Trp(7-CN)][αMeS][Phe(4-SO2NH2)]Y(Carboxymethyl)[Sar][Trp(βS-Me,7-OMe)][X1][Nle][4Pal][Pip(5R-OH)][Trp(7-aza,1-CH2COOH)][dHyp](Carboxymethyl)N))	9.72	8.85
CCCC[C@@H]1NC(=O)[C@@H]2CC[C@@H](C2)NC(=O)[C@H]([C@@H](C)c2c[nH]c3c(OC)cccc23)NC(=O)CN(C)C(=O)[C@H](Cc2ccc(C(=O)O)cc2)NC(=O)[C@H](Cc2ccc(C(N)=O)cc2)NC(=O)[C@](C)(CO)NC(=O)[C@H](Cc2c[nH]c3c(C#N)cccc23)NC(=O)[C@H](Cc2ccc(C(=O)O)c(F)c2)NC(=O)[C@H](CC(N)=O)NC(=O)[C@H]2C[C@H](NC(=O)C[N+](C)(C)C)CN2C(=O)[C@H](Cc2c[nH]c3ncccc23)NC(=O)[C@@H]2CC[C@@H](O)CN2C(=O)[C@H](Cc2ccncc2)NC1=O [SEQ ID NO. 116] (cyclo([4Pal][Pip(5R-OH)][Trp(7-aza)][X49]N[X27][Trp(7-CN)][αMeS][Phe(4-CONH2)][Phe(4-COOH)][Sar][Trp(βS-Me,7-OMe)][X1][Nle]))	10.10	9.40
CCCC[C@@H]1NC(=O)[C@@H]2CC[C@@H](C2)NC(=O)[C@H]([C@@H](C)c2c[nH]c3c(OC)cccc23)NC(=O)CN(C)C(=O)[C@H](Cc2ccc(C(=O)O)cc2)NC(=O)[C@H]([C@H](O)c2ccc(C(N)=O)cc2)NC(=O)[C@](C)(CO)NC(=O)[C@H](Cc2c[nH]c3c(C#N)cccc23)NC(=O)[C@H](Cc2ccc(S(N)(=O)=O)cc2)NC(=O)[C@H](CC(N)=O)NC(=O)[C@H]2C[C@H](O)CN2C(=O)[C@H](Cc2cn(CC(=O)O)c3ccccc23)NC(=O)[C@@H]2CC[C@@H](O)CN2C(=O)[C@H](Cc2ccncc2)NC1=O [SEQ ID NO. 119] (cyclo([4Pal][Pip(5R-OH)][Trp(1-CH2COOH)][dHyp]N[Phe(4-SO2NH2)][Trp(7-CN)][αMeS][X44][Phe(4-COOH)][Sar][Trp(βS-Me,7-OMe)][X1][Nle]))	9.92	9.15
CCCC[C@@H]1NC(=O)[C@@H]2CC[C@@H](C2)NC(=O)[C@H]([C@@H](C)c2c[nH]c3c(OC)cccc23)NC(=O)CN(C)C(=O)[C@H](Cc2ccc(OCC(=O)O)cc2)NC(=O)[C@H](Cc2ccc(C(N)=O)cc2)NC(=O)[C@](C)(CO)NC(=O)[C@H](Cc2c[nH]c3c(Cl)cccc23)NC(=O)[C@H](Cc2ccncc2)NC(=O)[C@H](CC(N)=O)NC(=O)[C@H](CCC(=O)O)N(C)C(=O)[C@H](Cc2c[nH]c3ccccc23)NC(=O)[C@@H]2CC[C@@H](O)CN2C(=O)[C@H](Cc2ccncc2)NC1=O [SEQ ID NO. 126] (cyclo([4Pal][Trp(7-Cl)][αMeS][Phe(4-CONH2)]Y(Carboxymethyl)[Sar][Trp(βS-Me,7-OMe)][X1][Nle][4Pal][Pip(5R-OH)]W[NMeE]N))	10.10	9.10
CCCC[C@@H]1NC(=O)[C@@H]2CC[C@@H](C2)NC(=O)[C@H]([C@@H](C)c2c[nH]c3c(OC)cccc23)NC(=O)CN(C)C(=O)[C@H](Cc2ccc(C(N)=O)cc2)NC(=O)[C@H](Cc2ccc(C(N)=O)cc2)NC(=O)[C@](C)(CO)NC(=O)[C@H](Cc2c[nH]c3c(C#N)cccc23)NC(=O)[C@H]([C@H](O)c2ccncc2)NC(=O)[C@H](CC(N)=O)NC(=O)[C@H]2C[C@H](OCC(=O)O)CN2C(=O)[C@H](Cc2cn(CC(=O)O)c3ccccc23)NC(=O)[C@@H]2CC[C@@H](O)CN2C(=O)[C@H](Cc2ccncc2)NC1=O [SEQ ID NO. 129] (cyclo([4Pal][Pip(5R-OH)][Trp(1-CH2COOH)][dHyp](Carboxymethyl)N[X30][Trp(7-CN)][αMeS][Phe(4-CONH2)][Phe(4-CONH2)][Sar][Trp(βS-Me,7-OMe)][X1][Nle]))	9.32	8.51
CCCC[C@@H]1NC(=O)[C@@H]2CC[C@@H](C2)NC(=O)[C@H]([C@@H](C)c2c[nH]c3c(OC)cccc23)NC(=O)CN(C)C(=O)[C@H](Cc2ccc(OCC(=O)O)cc2)NC(=O)[C@H](Cc2ccc(S(N)(=O)=O)cc2)NC(=O)[C@](C)(CO)NC(=O)[C@H](Cc2c[nH]c3c(C#N)cccc23)NC(=O)[C@H](Cc2ccc(OCC(=O)O)cc2)NC(=O)[C@H](CC(N)=O)NC(=O)[C@H]2C[C@H](O)CN2C(=O)[C@H](Cc2c[nH]c3ccccc23)NC(=O)[C@@H]2CC[C@@H](O)CN2C(=O)[C@H](Cc2ccncc2)NC1=O [SEQ ID NO. 135] (cyclo([4Pal][Pip(5R-OH)]W[dHyp]NY(Carboxymethyl)[Trp(7-CN)][αMeS][Phe(4-SO2NH2)]Y(Carboxymethyl)[Sar][Trp(βS-Me,7-OMe)][X1][Nle]))	10.15	9.40
CCCC[C@@H]1NC(=O)[C@@H]2CC[C@@H](C2)NC(=O)[C@H]([C@@H](C)c2c[nH]c3c(OC)cccc23)NC(=O)CN(C)C(=O)[C@H](Cc2ccc(C(N)=O)cc2)NC(=O)[C@H](Cc2ccc(S(N)(=O)=O)cc2)NC(=O)[C@](C)(CO)NC(=O)[C@H](Cc2c[nH]c3c(C#N)cccc23)NC(=O)[C@H](Cc2ccc(C(=O)O)cc2)NC(=O)[C@H](CC(N)=O)NC(=O)[C@H]2C[C@H](OCC[N+](C)(C)C)CN2C(=O)[C@H](Cc2cn(CC(=O)O)c3ccccc23)NC(=O)[C@@H]2CC[C@@H](O)CN2C(=O)[C@H](Cc2ccncc2)NC1=O [SEQ ID NO. 136] (cyclo([4Pal][Pip(5R-OH)][Trp(1-CH2COOH)][dHyp](Ethyl(2-NMe3+))N[Phe(4-COOH)][Trp(7-CN)][αMeS][Phe(4-SO2NH2)][Phe(4-CONH2)][Sar][Trp(βS-Me,7-OMe)][X1][Nle]))	10.15	9.40
CCCC[C@@H]1NC(=O)[C@@H]2CC[C@@H](C2)NC(=O)[C@H]([C@@H](C)c2c[nH]c3c(OC)cccc23)NC(=O)CN(C)C(=O)[C@H](Cc2ccc(O)cc2)NC(=O)[C@H](Cc2ccc(C(N)=O)cc2)NC(=O)[C@](C)(CO)NC(=O)[C@H](Cc2c[nH]c3c(Cl)cccc23)NC(=O)[C@H](Cc2ccc(OCCN)cc2)NC(=O)[C@H](CC(N)=O)NC(=O)[C@H](CCC(=O)O)N(C)C(=O)[C@H](Cc2c[nH]c3ccccc23)NC(=O)[C@@H]2CC[C@@H](O)CN2C(=O)[C@H](Cc2ccncc2)NC1=O [SEQ ID NO. 145] (cyclo([4Pal][Pip(5R-OH)]W[NMeE]N[AEF][Trp(7-Cl)][αMeS][Phe(4-CONH2)]Y[Sar][Trp(βS-Me,7-OMe)][X1][Nle]))	9.74	9.10
CCCC[C@@H]1NC(=O)[C@@H]2CC[C@@H](C2)NC(=O)[C@H]([C@@H](C)c2c[nH]c3c(OC)cccc23)NC(=O)CN(C)C(=O)[C@H](Cc2ccc(C(N)=O)cc2)NC(=O)[C@H](Cc2ccc(C(N)=O)cc2)NC(=O)[C@](C)(CO)NC(=O)[C@H](Cc2c[nH]c3c(C#N)cccc23)NC(=O)[C@H](Cc2ccc(C(=O)O)cc2)NC(=O)[C@H](CC(N)=O)NC(=O)[C@H](C)N(CCC(N)=O)C(=O)[C@H](Cc2c[nH]c3ncccc23)NC(=O)[C@@H]2CC[C@@H](O)CN2C(=O)[C@H](Cc2ccncc2)NC1=O [SEQ ID NO. 147] (cyclo([4Pal][Pip(5R-OH)][Trp(7-aza)][X52]N[Phe(4-COOH)][Trp(7-CN)][αMeS][Phe(4-CONH2)][Phe(4-CONH2)][Sar][Trp(βS-Me,7-OMe)][X1][Nle]))	9.68	8.85

Source: patent US20240287138A1, “CYCLIC PEPTIDES FOR INHIBITING TNF RECEPTOR 1 ACTIVITY” (Merck Sharp & Dohme LLC, priority 2023, published 2024)
